Source: patent US10273333B2, “Substituted polyesters by thiol-ene modification: rapid diversification for therapeutic protein stabilization” (THE REGENTS OF THE UNIVERSITY OF CALIFORNIA, priority 2014, dated 2019)

Columns and labels:
[1] = target: T1, granulocyte colony-stimulating factor (G-CSF) (Homo sapiens, UniProt P09919); experiment: G-CSF stabilization studies; G-CSF bioactivity by NFS-60 cell proliferation (CellTiter-Blue); format: cell-based; conditions: 60° C. for 30 minutes; small molecules at the concentration of stabilizing units in pCL-zwitterion80, Tween 80 and polymers at 100 weight equivalents; FIG. 74
T1 construct: host or cells: E. coli
T1 sequence (P09919 31-204 isoform P09919-2 limits assumed): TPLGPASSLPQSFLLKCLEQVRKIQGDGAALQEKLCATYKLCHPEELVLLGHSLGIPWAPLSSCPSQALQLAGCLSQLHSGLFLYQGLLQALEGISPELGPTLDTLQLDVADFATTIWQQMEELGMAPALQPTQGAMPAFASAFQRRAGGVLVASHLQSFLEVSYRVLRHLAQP
Description: G-CSF Stabilization Studies: G-CSF samples (25 μL) were prepared in 10 mM acetate buffer, pH 4.0 at 1 μg/mL with 100 equivalents polymer additive by weight. Samples were stored at 4° C. for 90 minutes or 60° C. for 30 minutes and then were diluted with cold RPMI-1640 medium+10% FBS (735 μL). The samples were then further diluted with RPMI-1640+10% FBS to a final concentration of 1 ng/mL. G-CSF bioactivity was then assayed in a NFS-60 mouse myelogenous leukemia lymphoblast cell line. NFS-60 cells were cultured in RPMI-1640 medium supplemented with 10% FBS and 2 ng/mL interleukin-3 (IL-3) at 37° C./5% CO2. NFS-60 cells were passaged at least three times before used in proliferation experiments. Prior to treating NFS-60 cells with G-CSF samples, NFS-60 cells were collected and resuspended in RPMI-1640 with 10% FBS (without additional growth factors). Cells were plated in the internal wells of a 96 well plate at a density of 20,000 cells per well in 50 μL of medium. G-CSF solution (50 μL) was then added to provide a final concentration of 0.5 ng/mL and total well volume of 100 μL. Following 48 h incubation at 37° C./5% CO2, CellTiter-Blue viability assay was performed to measure cell proliferation. All experimental groups were normalized to the control of the control of media alone without G-CSF addition. All p values were calculated using the independent Student's t test assuming unequal variances.
Next the ability of the polymer to protect protein activity against environmental stressors was assessed. The therapeutic protein granulocyte colony-stimulating factor (G-CSF) was selected to compare excipient efficacy due to its clinical importance. […] G-CSF is highly unstable at physiological pH and is therefore stored at pH 4.0; still at this pH the protein readily degrades upon storage or subjection to heat (Krishnan et al., 2002). […] Protein activity was determined by measuring cell proliferation in murine myeloid leukemia NFS-60 cells, which is enhanced in the presence of GCSF, and compared to the proliferation of freshly diluted protein (Shirafuji et al., 1989).

[2] = Differential scanning calorimetry (DSC): melting and crystallization enthalpy of water; format: physicochemical; conditions: 1 mol % of the stabilizing unit; for ΔHc (change in crystallization enthalpy of water) / ΔHm (change in melting enthalpy of water): relative to water; for Hc (crystallization enthalpy of water) / Hm (melting enthalpy of water): second heat/cool run, in J/g (unit assumed)
Description: Solutions of trehalose, betaine, pCL-trehalose80, and pCL-zwitterion80 were made at 1 mol % of the stabilizing unit (trehalose or betaine) and analyzed by DSC (TA Instruments Q2000). Runs were carried out using two heat/cool cycles from −40° C. to 40° C. at […] and values were taken from the second run.

[3] = system: β-galactosidase (β-Gal); conditions: three 12-hour desiccation (lyophilization) cycles; excipient; FIG. 12b
Description: The stabilization of β-Gal against lyophilization stress was also measured. […] The activity of β-Gal was determined by reaction with ortho-nitrophenol galactose (ONPG). When incubated with β-Gal, release of the yellow-colored o-nitrophenol from ONPG can be monitored at 405 nm.
The activity of β-Gal was determined by reaction with ortho-nitrophenol galactose (ONPG). When incubated with β-Gal, release of the yellow-colored o-nitrophenol from ONPG can be monitored at 405 nm.
Lyophilization studies with β-galactosidase were carried out as previously described; 8-Gal was subjected to three 12 hour lyophliization cycles before dilution. Activity was assayed by monitoring the hydrolysis of o-nitrophenol galactose (ONPG) at 405 nm.

[4] = target: lysozyme (Gallus gallus, UniProt P00698); experiment: Lysozyme stabilization against heat stress (90° C., 20 minutes), EnzChek lysozyme activity assay; format: biochemical; conditions: heated 90° C. for 20 minutes; 5 to 25 wt eq. excipient; FIG. 12a
Description: The ability of these biodegradable trehalose polymers to stabilize proteins was confirmed through heat and lyophilization stress assays. […] Therefore, these proteins were also selected to test the biodegradable trehalose polymers. First, lysozyme was stressed by heating to 90° C. for 20 minutes.
[…] Samples were further diluted to a concentration of 0.021 mg/mL (1 kU/mL) and […] aliquots were prepared in 0.5 mL LoBind Eppendorf tubes. Each aliquot was heated to 90° C. for 20 minutes at 500 rpm, then cooled to 4° C. and centrifuged for 1 minute at 10,000 rpm. Samples were stored at 4° C. until activity was evaluated all together using the EnzChek® lysozyme activity assay.
Aliquots containing 20 μL of lysozyme-glycopolymer solution were diluted to 100 μL with PBS pH 7.4. 50 μL of the resulting solution was removed and incubated with 50 μL of Micrococcus luteus labeled with FITC (1 mg/mL) at 37° C. for 30 minutes in a 96-well plate. The resulting fluorescence was measured (abs 480 nm/em 530 nm) and quantified relative to a known concentration curve. Statistics to determine significance were calculated using the Students t test; % confidence as +/−=t(standard deviation)/(number of trials)½ with p<1−% confidence/100.

Sequence of lysozyme (P00698 19-147): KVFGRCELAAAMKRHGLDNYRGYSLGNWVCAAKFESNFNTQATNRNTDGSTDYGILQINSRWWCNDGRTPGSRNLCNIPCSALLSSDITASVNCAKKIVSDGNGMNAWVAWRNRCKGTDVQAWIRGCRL

## CCCCCCCC/C=C\CCCCCCCC(=O)OCCOCC(OCCO)C1OCC(OCCO)C1OCCO (stereo not shown) [Tween 80, polysorbate 80]
[1]
  G-CSF activity / cell proliferation, comparison with small-molecule excipients: maintained high protein activity

## C[N+](C)(C)CC(=O)O [betaine]
[1]
  G-CSF activity / cell proliferation, comparison with small-molecule excipients: little stabilizing effect
[2]
  ΔHc (change in crystallization enthalpy of water): 73.2
  ΔHm (change in melting enthalpy of water): −98.4
  Hc (crystallization enthalpy of water): −179
  Hm (melting enthalpy of water): 198.1

## OC[C@H]1O[C@@](CO)(O[C@H]2O[C@H](CO)[C@@H](O)[C@H](O)[C@H]2O)[C@@H](O)[C@@H]1O [sucrose]
[1]
  G-CSF activity / cell proliferation, comparison with small-molecule excipients: little stabilizing effect

## OC[C@H]1O[C@H](O[C@H]2O[C@H](CO)[C@@H](O)[C@H](O)[C@H]2O)[C@H](O)[C@@H](O)[C@@H]1O [trehalose]
[3]
  β-Gal activity maintained (of native activity): up to 67%
[4]
  lysozyme activity retained (of native activity): not significantly different from the negative control
[2]
  ΔHc (change in crystallization enthalpy of water): 22.3
  ΔHm (change in melting enthalpy of water): −47.4
  Hc (crystallization enthalpy of water): −229.9
  Hm (melting enthalpy of water): 249.1
